In PMC8253220, “Molecular design, synthesis and in vitro biological evaluation of thienopyrimidine–hydroxamic acids as chimeric kinase HDAC inhibitors: a challenging approach to combat cancer” (Journal of Enzyme Inhibition and Medicinal Chemistry, 2021):
Values joined by “and” are separate entries in the source; they are usually repeats but may differ in a detail not shown here. Equal entries are not always repeated.

Tests used:
full NCI 60 cell panel = test: NCI one-dose screen, whole panel statistics; format: cell-based, human; details: 1.00E-5 Molar; for Mean Growth Percent: mean over panel
Procedure, shortened: (§1)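 Single 10 μM dose, NCI-60 panel; read-out = % growth vs untreated controls → % inhibition.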

MCF7 = test: NCI one-dose screen; format: cell-based, human; details: Breast MCF7, 10 µM single dose
Procedure, shortened: (§2)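 In vitro antiproliferative testing: NCI-60 panel, initial single dose 10 μM, inhibition % derived from percent growth of treated versus untreated control cells.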

MDA-MB-468 = test: NCI one-dose screen; format: cell-based, human; details: Breast MDA-MB-468, 10 µM single dose
Procedure, shortened: as §2

PC-3 = test: NCI one-dose screen; format: cell-based, human; details: Prostate PC-3, 10 µM single dose
Procedure, shortened: as §1

ACHN = test: NCI one-dose screen; format: cell-based, human; details: Renal ACHN, 10 µM single dose
Procedure, shortened: (§3)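 At 10 μM, a single concentration, compounds were evaluated for antiproliferative effect in the NCI 60-line screen, with growth expressed relative to untreated control cells.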

HCC-2998 = test: NCI one-dose screen; format: cell-based, human; details: Colon HCC-2998, 10 µM single dose
Procedure, shortened: as §3

EKVX = test: NCI one-dose screen; format: cell-based, human; details: NSCLC EKVX, 10 µM single dose
Procedure, shortened: (§4)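 Single dose of 10 μM tested across the full NCI-60 cell panel. Values are percent growth inhibition relative to untreated control cells, following standard NCI methodology.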

NCI-H460 = test: NCI one-dose screen; format: cell-based, human; details: NSCLC NCI-H460, 10 µM single dose
Procedure, shortened: as §3

T-47D = test: NCI one-dose screen; format: cell-based, human; details: Breast T-47D, 10 µM single dose
Procedure, shortened: as §3

SN12C = test: NCI one-dose screen; format: cell-based, human; details: Renal SN12C, 10 µM single dose
Procedure, shortened: as §3

UACC-257 = test: NCI one-dose screen; format: cell-based, human; details: Melanoma UACC-257, 10 µM single dose
Procedure, shortened: as §1

SK-MEL-5 = test: NCI one-dose screen; format: cell-based, human; details: Melanoma SK-MEL-5, 10 µM single dose
Procedure, shortened: as §3

COLO 205 = test: NCI one-dose screen; format: cell-based, human; details: Colon COLO 205, 10 µM single dose
Procedure, shortened: as §3

K-562 = test: NCI one-dose screen; format: cell-based, human; details: Leukemia K-562, 10 µM single dose
Procedure, shortened: as §3

SK-OV-3 = test: NCI one-dose screen; format: cell-based, human; details: Ovarian SK-OV-3, 10 µM single dose
Procedure, shortened: as §3

MDA-MB-231/ATCC = test: NCI one-dose screen; format: cell-based, human; details: Breast MDA-MB-231/ATCC, 10 µM single dose
Procedure, shortened: as §3

RXF 393 = test: NCI one-dose screen; format: cell-based, human; details: Renal RXF 393, 10 µM single dose
Procedure, shortened: as §3

OVCAR-5 = test: NCI one-dose screen; format: cell-based, human; details: Ovarian OVCAR-5, 10 µM single dose
Procedure, shortened: as §3

NCI-H226 = test: NCI one-dose screen; format: cell-based, human; details: NSCLC NCI-H226, 10 µM single dose
Procedure, shortened: as §4

IGROV1 = test: NCI one-dose screen; format: cell-based, human; details: Ovarian IGROV1, 10 µM single dose
Procedure, shortened: as §3

MALME-3M = test: NCI one-dose screen; format: cell-based, human; details: Melanoma MALME-3M, 10 µM single dose
Procedure, shortened: as §3

LOX IMVI = test: NCI one-dose screen; format: cell-based, human; details: Melanoma LOX IMVI, 10 µM single dose
Procedure, shortened: as §3

HOP-62 = test: NCI one-dose screen; format: cell-based, human; details: NSCLC HOP-62, 10 µM single dose
Procedure, shortened: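 One concentration (10 μM) applied to each line of the full NCI-60 panel; percent growth compared against untreated cells.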

SW-620 = test: NCI one-dose screen; format: cell-based, human; details: Colon SW-620, 10 µM single dose
Procedure, shortened: as §1

EGFR = EGFR (Homo sapiens, UniProt P00533); test: In vitro EGFR tyrosine kinase inhibitory assay (Z'-LYTE, SelectScreen); format: biochemical; details: 10 µM single dose
EGFR, sequence (P00533 25-1210): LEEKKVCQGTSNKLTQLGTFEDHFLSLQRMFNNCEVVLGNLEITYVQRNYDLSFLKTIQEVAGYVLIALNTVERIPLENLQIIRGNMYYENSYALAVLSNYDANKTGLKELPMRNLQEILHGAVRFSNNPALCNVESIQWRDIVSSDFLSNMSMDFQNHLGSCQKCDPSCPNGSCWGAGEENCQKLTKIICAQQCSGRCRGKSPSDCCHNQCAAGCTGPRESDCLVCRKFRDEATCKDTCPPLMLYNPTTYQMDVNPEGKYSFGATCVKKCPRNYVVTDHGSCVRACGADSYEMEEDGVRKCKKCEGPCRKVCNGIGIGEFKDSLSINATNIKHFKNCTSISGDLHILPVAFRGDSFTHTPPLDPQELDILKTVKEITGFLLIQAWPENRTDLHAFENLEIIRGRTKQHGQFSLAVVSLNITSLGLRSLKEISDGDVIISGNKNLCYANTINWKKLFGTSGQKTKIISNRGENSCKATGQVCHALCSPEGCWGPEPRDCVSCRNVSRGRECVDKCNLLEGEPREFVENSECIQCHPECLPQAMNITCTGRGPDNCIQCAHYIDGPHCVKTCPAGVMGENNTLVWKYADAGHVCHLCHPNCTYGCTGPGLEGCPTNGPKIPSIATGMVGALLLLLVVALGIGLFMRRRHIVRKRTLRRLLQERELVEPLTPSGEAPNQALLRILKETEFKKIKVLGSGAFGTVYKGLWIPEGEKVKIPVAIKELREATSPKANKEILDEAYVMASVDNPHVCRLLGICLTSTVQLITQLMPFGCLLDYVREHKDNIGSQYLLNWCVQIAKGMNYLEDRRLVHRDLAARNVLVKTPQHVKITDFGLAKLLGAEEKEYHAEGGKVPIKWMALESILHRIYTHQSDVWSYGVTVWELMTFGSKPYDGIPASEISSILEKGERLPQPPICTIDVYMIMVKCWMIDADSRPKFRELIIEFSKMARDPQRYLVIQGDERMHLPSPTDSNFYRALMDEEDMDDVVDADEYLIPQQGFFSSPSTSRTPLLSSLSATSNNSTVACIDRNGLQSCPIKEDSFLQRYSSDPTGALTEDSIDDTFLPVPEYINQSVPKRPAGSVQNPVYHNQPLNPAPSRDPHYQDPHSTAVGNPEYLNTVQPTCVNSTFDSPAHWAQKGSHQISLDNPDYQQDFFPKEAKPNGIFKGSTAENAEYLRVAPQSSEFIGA
Procedure, shortened: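 Z'-LYTE fluorescence coupled-enzyme format, read-out based on differential protease cleavage of phosphorylated vs non-phosphorylated peptide. Compounds screened at 10 µM single dose for % inhibition, then selected ones tested at 0.1 nM–10 µM for IC50 by curve fitting.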

Compound | Delta (one dose mean graph) (full NCI 60 cell panel) [%] | Range (one dose mean graph) (full NCI 60 cell panel) [%] | Mean Growth Percent (full NCI 60 cell panel) [%] | Growth Percent (MCF7) | Growth Percent (MDA-MB-468) | Growth Percent (PC-3) | Growth Percent (ACHN) | Growth Percent (HCC-2998) | Growth Percent (EKVX) | Growth Percent (NCI-H460) | Growth Percent (T-47D) | Growth Percent (SN12C) | Growth Percent (UACC-257) | Growth Percent (SK-MEL-5) | Growth Percent (COLO 205) | Growth Percent (K-562) | Growth Percent (SK-OV-3) | Growth Percent (MDA-MB-231/ATCC) | Growth Percent (RXF 393) | Growth Percent (OVCAR-5) | other results
COc1cccc(NC(=O)Nc2ccc(Nc3ncnc4sc(C(=O)NCCC(=O)NO)c(C)c34)cc2)c1 [Compound 11b, 1–(4-(6-((3-(hydroxyamino)-3-oxopropyl)carbamoyl)-5-methylthieno[2,3-d]pyrimidin-4-ylamino)phenyl)-3–(3-methoxyphenyl)urea] | 17.95 | 40.74 | 100.99 | 90.5% and 90.58% | 83.0% and 83.04% | 102.0% and 102.03% | 106.0% and 106.03% | 103.8% and 103.81% | 90.7% and 90.77% | 101.9% and 101.91% | 100.1% | 105.1% and 105.11% | 99.1% and 99.15% | 95.8% and 95.84% | 113.1% and 113.15% | 115.1% and 115.17% | 123.7% and 123.78% | 100.5% and 100.55% | 104.1% | 101.9% and 101.91% | Growth Percent (NCI-H226): 87.7% and 87.79%; Growth Percent (IGROV1): 104.1% and 104.14%; Growth Percent (MALME-3M): 107.0% and 107.03%; Growth Percent (LOX IMVI): 91.6% and 91.65%; Growth Percent (HOP-62): 103.2% and 103.23%; Growth Percent (SW-620): 103.0% and 103.05%; inhibition at 10 µM (EGFR): 5%; melting point: 257 to 260 °C
Cc1c(C(=O)NCCCC(=O)NO)sc2ncnc(Nc3ccc(Cl)cc3)c12 [Compound 20c, 4–(4-chlorophenylamino)-N-(4-(hydroxyamino)-4-oxobutyl)-5-methylthieno[2,3-d]pyrimidine-6-carboxamide] | 23.92 | 73.06 | 103.09 | 91.4% and 91.44% | 110.9% and 110.91% | 101.4% and 101.49% | 105.1% and 105.18% | 102.4% and 102.48% | 90.5% and 90.52% | 101.9% and 101.95% | 105.2% and 105.24% | 100.0% and 100.04% | 112.8% and 112.86% | 100.0% | 117.8% and 117.81% | 108.0% | 112.9% and 112.92% | 95.4% and 95.46% | 109.5% and 109.55% | 109.8% and 109.86% | Growth Percent (NCI-H226): 92.0% and 92.02%; Growth Percent (IGROV1): 81.1% and 81.14%; Growth Percent (MALME-3M): 112.5% and 112.53%; Growth Percent (LOX IMVI): 99.2% and 99.24%; Growth Percent (HOP-62): 102.5% and 102.52%; Growth Percent (SW-620): 102.3% and 102.37%; Mean % inhibition EGFR (EGFR): 91%; inhibition at 10 µM (EGFR): 96%; melting point: 212 °C
Cc1c(C(=O)NO)sc2ncnc(Nc3ccc(NC(=O)Nc4ccccc4)cc3)c12 [Compound 7a, 1–(4-(6-(hydroxycarbamoyl)-5-methylthieno[2,3-d]pyrimidin-4-ylamino)phenyl)-3-phenylurea] | 24.69 | 48.09 | 99.34 | 90.7% and 90.78% | 111.9% and 111.92% | 97.3% and 97.34% | 102.3% and 102.35% | 99.3% and 99.38% | 88.9% and 88.95% | 100.3% and 100.39% | 95.7% and 95.72% | 102.8% and 102.86% | 115.5% and 115.56% | 101.0% and 101.07% | 106.8% and 106.84% | 105.9% and 105.92% | 122.7% and 122.74% | 91.1% and 91.12% | 110.2% | 105.3% and 105.35% | Growth Percent (NCI-H226): 99.4% and 99.47%; Growth Percent (IGROV1): 103.6% and 103.69%; Growth Percent (MALME-3M): 89.5% and 89.51%; Growth Percent (LOX IMVI): 90.5% and 90.57%; Growth Percent (HOP-62): 102.6% and 102.62%; Growth Percent (SW-620): 98.4% and 98.44%; inhibition at 10 µM (EGFR): 48%; melting point: > 200 °C
COc1cccc(NC(=O)Nc2ccc(Nc3ncnc4sc(C(=O)NO)c(C)c34)cc2)c1 [Compound 7b, 1–(4-(6-(hydroxycarbamoyl)-5-methylthieno[2,3-d]pyrimidin-4-ylamino)phenyl)-3–(3-methoxyphenyl)urea] | 18.14 | 45.12 | 101.61 | 95.2% and 95.27% | 98.8% and 98.87% | 101.6% and 101.65% | 103.7% and 103.71% | 103.6% and 103.61% | 92.8% and 92.81% | 100.7% and 100.73% | 99.6% and 99.67% | 99.1% and 99.12% | 100.8% and 100.87% | 99.5% | 114.4% and 114.44% | 108.5% and 108.57% | 128.5% and 128.59% | 99.5% and 99.59% | 104.4% | 102.8% and 102.86% | Growth Percent (NCI-H226): 94.5% and 94.51%; Growth Percent (IGROV1): 106.5% and 106.51%; Growth Percent (MALME-3M): 101.9% and 101.92%; Growth Percent (LOX IMVI): 94.1% and 94.14%; Growth Percent (HOP-62): 101.6% and 101.62%; Growth Percent (SW-620): 101.2% and 101.24%; inhibition at 10 µM (EGFR): 39%; melting point: > 200 °C
